Experimental data: the NIST ThermoML archive (doi:10.1021/acs.jced.9b00442)
± gives the expanded uncertainty stated by the source.

Key:
[1] = 100 kPa, Liquid; for electrical conductivity: Frequency=0.0006 MHz, Alternating current cell with electrodes; for viscosity: Concentric cylinders viscometry; for mass density: Vibrating tube method
[2] = refractive index (Na D-line) (dimensionless); details: 100 kPa, Liquid, Standard Abbe refractometry

CCCC[N+](C)(C)CC.O=S(=O)([N-]S(=O)(=O)C(F)(F)F)C(F)(F)F
Details | electrical conductivity [S/m] | mass density [kg/m3] | refractive index | viscosity [mPa·s]
[1], 283.15 K | 0.082 ± 0.002 | – | – | –
[1], 288.15 K | 0.11 ± 0.002 | 1380.6 ± 1.1 | – | 176.1 ± 7.6
[1], 289.15 K | – | 1379.7 ± 1.1 | – | –
[1], 290.15 K | – | 1378.8 ± 1.1 | – | –
[1], 291.15 K | – | 1377.9 ± 1.1 | – | –
[1], 292.15 K | – | 1377 ± 1.1 | – | –
[1], 293.15 K | 0.143 ± 0.003 | 1376.1 ± 1.1 | – | 132.4 ± 5.6
[1], 294.15 K | – | 1375.2 ± 1.1 | – | –
[1], 295.15 K | – | 1374.3 ± 1.1 | – | –
[1], 296.15 K | – | 1373.4 ± 1.1 | – | –
[1], 297.15 K | – | 1372.5 ± 1.1 | – | –
[1], 298.15 K | 0.182 ± 0.004 | 1371.6 ± 1.1 | – | 100.5 ± 4.2
[1], 299.16 K | – | 1370.8 ± 1.1 | – | –
[1], 300.16 K | – | 1369.9 ± 1.1 | – | –
[1], 301.15 K | – | 1369 ± 1.1 | – | –
[1], 302.15 K | – | 1368.1 ± 1.1 | – | –
[1], 303.15 K | 0.228 ± 0.005 | 1367.2 ± 1.1 | – | 78.4 ± 3.2
[1], 304.15 K | – | 1366.3 ± 1.1 | – | –
[1], 305.15 K | – | 1365.4 ± 1.1 | – | –
[1], 306.15 K | – | 1364.6 ± 1.1 | – | –
[1], 307.15 K | – | 1363.7 ± 1.1 | – | –
[1], 308.15 K | 0.279 ± 0.006 | 1362.8 ± 1.1 | – | 62.3 ± 2.5
[1], 309.15 K | – | 1361.9 ± 1.1 | – | –
[1], 310.15 K | – | 1361.1 ± 1.1 | – | –
[1], 311.15 K | – | 1360.2 ± 1.1 | – | –
[1], 312.15 K | – | 1359.3 ± 1.1 | – | –
[1], 313.15 K | 0.337 ± 0.007 | 1358.4 ± 1.1 | – | 50.9 ± 2.1
[1], 314.15 K | – | 1357.6 ± 1.1 | – | –
[1], 315.15 K | – | 1356.7 ± 1.1 | – | –
[1], 316.15 K | – | 1355.8 ± 1.1 | – | –
[1], 317.15 K | – | 1355 ± 1.1 | – | –
[1], 318.15 K | 0.401 ± 0.008 | 1354.1 ± 1.1 | – | 41.2 ± 1.7
[1], 319.15 K | – | 1353.2 ± 1.1 | – | –
[1], 320.15 K | – | 1352.3 ± 1.1 | – | –
[1], 321.15 K | – | 1351.5 ± 1.1 | – | –
[1], 322.15 K | – | 1350.6 ± 1.1 | – | –
[1], 323.15 K | 0.473 ± 0.009 | 1349.7 ± 1.1 | – | 34.2 ± 1.4
[1], 324.15 K | – | 1348.9 ± 1.1 | – | –
[1], 325.15 K | – | 1348 ± 1.1 | – | –
[1], 326.15 K | – | 1347.2 ± 1.1 | – | –
[1], 327.15 K | – | 1346.3 ± 1.1 | – | –
[1], 328.15 K | – | 1345.5 ± 1.1 | – | 28.8 ± 1.2
[1], 329.15 K | – | 1344.6 ± 1.1 | – | –
[1], 330.15 K | – | 1343.7 ± 1.1 | – | –
[1], 331.15 K | – | 1342.9 ± 1.1 | – | –
[1], 332.15 K | – | 1342 ± 1.1 | – | –
[1], 333.15 K | – | 1341.2 ± 1.1 | – | 24.8 ± 1
[1], 334.15 K | – | 1340.3 ± 1.1 | – | –
[1], 335.16 K | – | 1339.5 ± 1.1 | – | –
[1], 336.15 K | – | 1338.6 ± 1.1 | – | –
[1], 337.15 K | – | 1337.8 ± 1.1 | – | –
[1], 338.15 K | – | 1336.9 ± 1.1 | – | 21 ± 0.9
[1], 339.15 K | – | 1336 ± 1.1 | – | –
[1], 340.15 K | – | 1335.2 ± 1.1 | – | –
[1], 341.15 K | – | 1334.3 ± 1.1 | – | –
[1], 342.15 K | – | 1333.5 ± 1.1 | – | –
[1], 343.15 K | – | 1332.6 ± 1.1 | – | 18.2 ± 0.7
[1], 344.15 K | – | 1331.8 ± 1.1 | – | –
[1], 345.15 K | – | 1330.9 ± 1.1 | – | –
[1], 346.15 K | – | 1330.1 ± 1.1 | – | –
[1], 347.15 K | – | 1329.2 ± 1.1 | – | –
[1], 348.15 K | – | 1328.4 ± 1.1 | – | 15.9 ± 0.6
[1], 349.15 K | – | 1327.5 ± 1.1 | – | –
[1], 350.15 K | – | 1326.7 ± 1.1 | – | –
[1], 351.15 K | – | 1325.9 ± 1.1 | – | –
[1], 352.15 K | – | 1325 ± 1.1 | – | –
[1], 353.15 K | – | 1324.2 ± 1.1 | – | 14.2 ± 0.6
[1], 354.15 K | – | 1323.3 ± 1.1 | – | –
[1], 355.15 K | – | 1322.5 ± 1.1 | – | –
[1], 356.15 K | – | 1321.6 ± 1.1 | – | –
[1], 357.15 K | – | 1320.8 ± 1.1 | – | –
[1], 358.15 K | – | 1319.9 ± 1.1 | – | 12.4 ± 0.5
[1], 359.15 K | – | 1319.1 ± 1.1 | – | –
[1], 360.15 K | – | 1318.3 ± 1.1 | – | –
[1], 361.15 K | – | 1317.4 ± 1.1 | – | –
[1], 362.16 K | – | 1316.6 ± 1.1 | – | –
[1], 363.15 K | – | 1315.7 ± 1.1 | – | 11 ± 0.4
[2], 283.15 K | – | – | 1.4174 ± 0.0017 | –
[2], 288.15 K | – | – | 1.416 ± 0.0017 | –
[2], 293.15 K | – | – | 1.4147 ± 0.0017 | –
[2], 298.15 K | – | – | 1.4133 ± 0.0017 | –
[2], 303.15 K | – | – | 1.412 ± 0.0017 | –
[2], 308.15 K | – | – | 1.4106 ± 0.0017 | –
[2], 313.15 K | – | – | 1.4092 ± 0.0017 | –
[2], 318.15 K | – | – | 1.4078 ± 0.0017 | –
[2], 323.15 K | – | – | 1.4064 ± 0.0017 | –
[2], 328.15 K | – | – | 1.4051 ± 0.0017 | –
[2], 333.15 K | – | – | 1.4038 ± 0.0017 | –
[2], 338.15 K | – | – | 1.4024 ± 0.0017 | –
[2], 343.15 K | – | – | 1.4012 ± 0.0017 | –
[2], 348.15 K | – | – | 1.3998 ± 0.0017 | –
[2], 353.15 K | – | – | 1.3985 ± 0.0017 | –
[2], 358.15 K | – | – | 1.3973 ± 0.0017 | –
